Assay in all cases: inhibition of tumour cell growth, NCI panel, 48 h
Experiment [1] deals with U251 CNS.
Experiment [2] deals with M14 melanoma.
Experiment [3] relates to A549 NSCLC.
Experiment [4] concerns HOP-92 NSCLC.
In experiment [5] the test system is SR leukemia.
Experiment [6] concerns MOLT-4 leukemia.
For experiment [7], the system named is IGROV1 ovarian.
The subject of experiment [8] is NCI-H522 lung.
The subject of experiment [9] is EKVX NSCLC.
The test system of experiment [10] is CCRF-CEM leukemia.

Where “and” joins values, the source holds several entries; their conditions need not be identical. Equal values may be shown once.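 Briefly, cells in 96-well plates were exposed to five compound concentrations for 48 h, and endpoints were estimated by linear interpolation. Abbreviation: GI50, concentration required for 50% inhibition of growth. TGI: total growth inhibition.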 Bounds are passed on as bounds.

On to `Oc1ccc(N=Nc2ccc(N=Nc3ccccc3)cc2)cc1`, for which the GI50 was 10.4 µM in [1]; 3.01 µM in [2]; 2.14 µM in experiment [3]; 6.97 µM in [4]; 1.79 µM in experiment [5]; 0.351 µM in experiment [6]. Further, the GI50 in experiment [7] is 3.5 µM; in [8] it was 0.832 µM; in experiment [9], 2.49 µM; in [10], 0.379 µM. For the same molecule, the TGI is 26.9 µM in experiment [1]; 10.1 µM in [2]; 12 µM in experiment [3]; 28.1 µM in [4]; 14 µM in [5]; 11.9 µM in [6]. The TGI in [7] was 18.2 µM; in experiment [8], 3.94 µM; in [9], 12.5 µM; in [10], 14 µM.
Turning to `[C-]#[N+]C(C)(C)C[C@H]1CC(C)C2CCC(C)C3([N+]#[C-])CCC(=C)C1[C@H]23` (some centres undefined), the TGI amounted to 11.8 µM in [1]; 9.93 µM in experiment [2]; 21.7 µM in experiment [3]; 0.256 µM in experiment [4]; 8.74 µM in [5]; 5.25 µM in experiment [6]. The TGI was 47.4 µM in [7], 12.2 µM in experiment [8], 35.8 µM in experiment [9] and over 50 µM in experiment [10].
On to `C=C1C(=O)O[C@H]2[C@H]1CC/C(CNS(=O)(=O)c1cccc3ccccc13)=C\CC[C@@]1(C)O[C@@H]21`, for which the GI50 was 3.67 µM in [1]; 1.53 µM in experiment [2]; 11.5 µM in experiment [3]; 1.11 µM in [4]; 1.31 µM in [5]; 1.87 µM in [6]. The GI50 is 1.38 µM in [7], 1.28 µM in experiment [8], 2.53 µM in [9] and 0.624 µM in [10]. The TGI in [1] came to 15.3 µM; in [2], 3.32 µM; in [3], 32.4 µM; in experiment [4] it was 2.8 µM; in experiment [5], 6.11 µM; in experiment [6], 5.27 µM. The TGI in [7] was 3.4 µM; in experiment [8], 2.88 µM; in experiment [9], 10.3 µM; in experiment [10], 3.82 µM.
In the case of `CNc1nc(N(C)C)nc(N(C)C)n1`, the GI50 was > 100 µM and 1150 µM in experiment [1]; > 100 µM and 2150 µM in experiment [3]; > 100 µM and 277 µM in [4]; over 100 µM in [5]; > 100 µM and 1810 µM in [6]; > 100 µM and 1100 µM in experiment [7]. In addition, the GI50 was > 100 µM and 874 µM in experiment [8]; > 100 µM and 2180 µM in experiment [9]; > 100 µM and 4060 µM in [10]. Further, the TGI was > 100 µM and 2950 µM in experiment [1]; 2600 µM in experiment [2]; > 100 µM and 3500 µM in experiment [3]; > 100 µM and 809 µM in experiment [4]; over 100 µM in experiment [5]; > 100 µM and 7060 µM in [6]. The TGI in [7] was > 100 µM and 2640 µM; in experiment [8], > 100 µM and 3370 µM; in experiment [9], > 100 µM and 4800 µM; in experiment [10], > 100 µM and 6600 µM.
`CS/C(c1ccccc1)=[N+](/C)[O-]`: the TGI in [1] was over 100 µM; in [2] it was over 100 µM; in experiment [3], over 100 µM; in experiment [4], over 100 µM; in experiment [5] it was 47.6 µM; in experiment [6] it was over 100 µM. The TGI in [7] is over 100 µM; in experiment [8] it was over 100 µM; in [9], over 100 µM; in experiment [10], over 81.8 µM.
On to `CN(C)CCNC(=O)c1cc2c3ccccc3[nH]c2c2ncccc12`, for which the GI50 in [1] is 12.2 µM; in experiment [2], 12.1 µM; in experiment [3], 6.46 µM; in [4] it was 8.01 µM; in experiment [5] it was 3.34 µM; in experiment [6], 3.46 µM. In addition, the GI50 in experiment [7] was 1.14 µM; in experiment [8], 7.08 µM; in [9], 7.81 µM; in [10], 3.46 µM. Also, the TGI in [1] was found to be 37 µM; in experiment [2], 27.2 µM; in [3], 36.9 µM; in [4] it was 40.6 µM; in experiment [5], 13.2 µM; in experiment [6] it was 16.5 µM. Besides, the TGI came out at 19.1 µM in experiment [7], 24.5 µM in experiment [8], 38.2 µM in [9] and 15.8 µM in experiment [10].
On to `O=C(N/N=C\c1ccc(N(CCCl)CCCl)cc1Cl)c1cccnc1`, for which the GI50 in [1] was 10.4 µM; in [2], 26.5 µM; in experiment [3] it was 7.57 µM; in experiment [4], 15.1 µM; in [5] it was 7.23 µM; in experiment [6] it was 10.5 µM. For the same molecule, the GI50 in experiment [7] was 1.5 µM; in experiment [8], 21.4 µM; in experiment [9] it was 22.6 µM; in experiment [10] it was 14.5 µM. Further, the TGI in experiment [1] is 94.1 µM; in experiment [2], over 83.7 µM; in [3] it was 73.8 µM; in experiment [4], 69.1 µM; in [5] it was 69.6 µM; in experiment [6], 42.7 µM. For the same molecule, the TGI in experiment [7] is 24.5 µM; in [8], 86 µM; in [9], over 83.6 µM; in experiment [10], over 90.6 µM.
For the molecule `COCCNC(=O)c1ccc(-c2nc3ccc4[nH]ncc4c3c3c2CCCC3)cc1`, the GI50 in experiment [1] is 2.6 µM; in experiment [2] it was 1.39 µM; in experiment [3], 2.13 µM; in [4] it was 1.59 µM; in experiment [5] it was 0.558 µM; in [6], 1.61 µM. Also, the GI50 was 1.24 µM in [7], 1.92 µM in experiment [8], 1.61 µM in [9] and 2.44 µM in experiment [10]. Moreover, the TGI is over 100 µM in experiment [1]; over 100 µM in experiment [2]; over 100 µM in experiment [3]; 78.9 µM in experiment [4]; 6.2 µM in experiment [5]; 5.62 µM in experiment [6]. Moreover, the TGI in experiment [7] came out at 10.9 µM; in experiment [8], 12.4 µM; in experiment [9] it was 43.2 µM; in experiment [10], 16.6 µM.

The values above are taken from PubChem BioAssay (NCI).
